# Assays:
# Type in all cases: cell-based
# [1] = tested on: Human Dermal Fibroblasts (HDF) cell line; experiment: MTT assay, cytotoxic effect on Human Dermal Fibroblasts (HDF) cell line; settings: after 24 hours of treatment, normal human adult cell line
# Protocol: (§1) In this example, anti-cancer activity of benzo[4,5]imidazo[2,1-b]pyrimido[4,5-d][1,3]thiazine-2,4(3H)-dione and benzo[4,5]imidazo[2,1-b][1,3]thiazin-4-one was evaluated on A-431 cell line (an exemplary epidermoid carcinoma cell line), PC-3 cell line (an exemplary classical prostate cancer cell line), PANC-1 cell line (an exemplary pancreas ductal adenocarcinoma cell line)) by conducting an exemplary […] (MTT) assay. Cytotoxic effect of benzo[4,5]imidazo[2,1-b]pyrimido[4,5-d][1,3]thiazine-2,4(3H)-dione and benzo[4,5]imidazo[2,1-b][1,3]thiazin-4-one was also evaluated on Human Dermal Fibroblasts (HDF) cell line (an exemplary normal, human, adult cell line).
# (§2) Meanwhile, the A-431, PC-3, and PANC-1 cell lines were tested by MTT assay after being cultured in DMSO with a concentration of about 1% (v/v) and Etoposide (an anti-cancer chemotherapy drug) as negative and positive controls, respectively. […] “IC50” may refer to a concentration of a compound that may inhibit cell growth and proliferation by 50%.
# PANC-1 cell line = experiment: MTT assay on PANC-1 cell line; settings: Homo sapiens, after 24 hours of treatment, pancreas ductal adenocarcinoma cell line
# Protocol: as §1, §2
# A-431 cell line = experiment: MTT assay on A-431 cell line; settings: Homo sapiens, after 24 hours of treatment, epidermoid carcinoma cell line
# Protocol: as §1, §2
# PC-3 cell line = experiment: MTT assay on PC-3 cell line; settings: Homo sapiens, after 24 hours of treatment, prostate cancer cell line
# Protocol: as §1, §2
IC50 (PANC-1 cell line),IC50 (A-431 cell line),IC50 (PC-3 cell line),SMILES,IC50 [1]
32.2 µM,27 µM,25.2 µM,"COc1cc([C@@H]2c3cc4c(cc3[C@@H](O[C@@H]3O[C@@H]5CO[C@@H](C)O[C@H]5[C@H](O)[C@H]3O)[C@H]3COC(=O)[C@H]23)OCO4)cc(OC)c1O [Etoposide, reference compound]",> 100 µM
24.6 µM,25.3 µM,31.9 µM,Cc1ccc(C2=C3C(=O)N(C)C(=O)N(C)C3n3c(nc4ccccc43)S2)cc1 (centres unmarked),> 100 µM

# — patent publication US20230111768A1 (Razi University, priority 2021, published 2023)
